Data published in patent publication US10047084B2, “Imidazolone derivatives, pharmaceutical compositions and uses thereof” (BEIJING FORELANDPHARMA CO. LTD., priority 2013, dated 2018).

Columns and labels:
SK-BR3/BT474 = assay: CTG cell survival assay, SK-BR3/BT474; type: cell-based; conditions: SK-BR3/BT474 cells
Summary of the method: (§1)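 Cells were exposed to compounds in a 3-fold dilution series, with a top final concentration of 10 uM in 0.1% DMSO. Viable cells were quantified by CellTiter-Glo ATP luminescence.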

[1] = Solubility test in common aqueous vehicles; type: physicochemical; conditions: 25° C., pH = 3
MV-4-11 = assay: CTG cell survival assay, MV-4-11; type: cell-based; conditions: Homo sapiens, MV4-11, MV-4-11 cells
Summary of the method: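 Cells grown in RPMI 1640 with 10% FBS were plated and cultured 24 h at 37 °C, 5% CO2, then treated with compound diluted from 10 mM DMSO stocks. Viable cells were quantified as ATP by CellTiter-Glo luminescence.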

mTOR kinase = mTOR kinase (Homo sapiens (Human), UniProt P42345); assay: mTOR kinase activity assay (TR-FRET, GFP-4EBP1 substrate); type: biochemical; conditions: read-out: Enzyme (mTOR) IC50
mTOR kinase, sequence (P42345 1360-2549): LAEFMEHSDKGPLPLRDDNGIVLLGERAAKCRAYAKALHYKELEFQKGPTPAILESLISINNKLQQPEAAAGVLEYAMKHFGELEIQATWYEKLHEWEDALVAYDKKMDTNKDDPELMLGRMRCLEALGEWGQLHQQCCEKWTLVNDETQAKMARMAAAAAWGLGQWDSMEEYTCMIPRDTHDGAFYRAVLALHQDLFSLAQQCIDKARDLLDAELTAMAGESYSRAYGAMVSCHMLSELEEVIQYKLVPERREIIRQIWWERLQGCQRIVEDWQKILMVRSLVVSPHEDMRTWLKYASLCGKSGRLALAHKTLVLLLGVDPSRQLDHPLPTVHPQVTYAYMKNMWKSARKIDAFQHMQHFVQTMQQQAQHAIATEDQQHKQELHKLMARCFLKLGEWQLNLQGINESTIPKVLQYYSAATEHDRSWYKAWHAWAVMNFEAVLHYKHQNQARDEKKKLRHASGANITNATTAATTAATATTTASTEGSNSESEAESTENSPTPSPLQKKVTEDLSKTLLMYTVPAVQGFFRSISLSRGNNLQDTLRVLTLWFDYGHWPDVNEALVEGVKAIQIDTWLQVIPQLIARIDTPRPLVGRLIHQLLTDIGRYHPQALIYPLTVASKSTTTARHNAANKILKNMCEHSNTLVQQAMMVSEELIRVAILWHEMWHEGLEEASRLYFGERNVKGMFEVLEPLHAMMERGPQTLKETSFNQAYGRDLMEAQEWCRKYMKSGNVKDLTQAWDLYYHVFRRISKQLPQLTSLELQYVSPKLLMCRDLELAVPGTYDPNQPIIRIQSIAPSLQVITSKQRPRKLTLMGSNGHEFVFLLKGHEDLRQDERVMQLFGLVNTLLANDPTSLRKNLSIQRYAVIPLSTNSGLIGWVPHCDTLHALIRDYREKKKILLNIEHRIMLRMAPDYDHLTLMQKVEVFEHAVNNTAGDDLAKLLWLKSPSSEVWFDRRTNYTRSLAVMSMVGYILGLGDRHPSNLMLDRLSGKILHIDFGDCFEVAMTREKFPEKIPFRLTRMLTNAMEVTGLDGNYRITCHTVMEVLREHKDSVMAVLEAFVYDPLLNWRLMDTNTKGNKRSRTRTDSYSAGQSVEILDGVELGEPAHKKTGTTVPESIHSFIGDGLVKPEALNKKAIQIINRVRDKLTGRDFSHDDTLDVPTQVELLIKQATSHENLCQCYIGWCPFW
Method: 1. mTOR Kinase Activity Assay: The inhibition of the mTOR protein kinase activity by the compounds was determined by the enzymatic activity assay in vitro. The detection kit supplied by Invitrogen was used to detect the inhibition of the activity of the mTOR […]. The principle of the assay was as follows: mTOR kinase, fluorescein-labeled substrate and ATP were mixed, and after the reaction, EDTA and terbium-labeled first antibody were added. During the chemical reaction process of the mTOR kinase, the antibody recognized the phosphorylated and fluorescein-labeled substrate, and then the “time-resolved fluorescence resonance energy transfer” (TR-FRET) effect was enhanced. TR-FRET effect was calculated as the ratio of signals from the acceptor fluorescein to signals from the donor terbium. The amount of the antibody bound to the tracer was directly proportional to the amount of the phosphorylated substrate after the reaction. In this way, the kinase activity can be detected. In this assay, the substrate of the mTOR kinase was green fluorescent protein-coupled 4E binding protein 1 (GFP-4EBP1).
1.1 Materials and Instruments:
4-Hydroxyethylpiperazine ethanesulfonic acid (HEPES, Sigma, Cat# SH3375), ethylene glycol-bis-(2-aminoethylether)-tetraacetic acid (EGTA, Sigma, Cat# E3889), manganese chloride (MnCl2, Sigma, Cat# M1787), Tween-20 (Tween-20, Amresco), 1,4-dithiothreitol (DTT, Merck, CB233155),

PC-3 = assay: CTG cell survival assay, PC-3; type: cell-based; conditions: Homo sapiens, PC-3 cells
Summary of the method: as §1

[2] = biological target: PI3K-alpha (PIK3CA/PIK3R1) (Homo sapiens (Human), UniProt P42336); assay: PI3K-alpha enzyme activity assay (ADP Glo); type: biochemical; conditions: read-out: Activity of inhibiting PI3K enzyme IC50
PI3K-alpha (PIK3CA/PIK3R1), sequence (P42336 whole entry, looked up): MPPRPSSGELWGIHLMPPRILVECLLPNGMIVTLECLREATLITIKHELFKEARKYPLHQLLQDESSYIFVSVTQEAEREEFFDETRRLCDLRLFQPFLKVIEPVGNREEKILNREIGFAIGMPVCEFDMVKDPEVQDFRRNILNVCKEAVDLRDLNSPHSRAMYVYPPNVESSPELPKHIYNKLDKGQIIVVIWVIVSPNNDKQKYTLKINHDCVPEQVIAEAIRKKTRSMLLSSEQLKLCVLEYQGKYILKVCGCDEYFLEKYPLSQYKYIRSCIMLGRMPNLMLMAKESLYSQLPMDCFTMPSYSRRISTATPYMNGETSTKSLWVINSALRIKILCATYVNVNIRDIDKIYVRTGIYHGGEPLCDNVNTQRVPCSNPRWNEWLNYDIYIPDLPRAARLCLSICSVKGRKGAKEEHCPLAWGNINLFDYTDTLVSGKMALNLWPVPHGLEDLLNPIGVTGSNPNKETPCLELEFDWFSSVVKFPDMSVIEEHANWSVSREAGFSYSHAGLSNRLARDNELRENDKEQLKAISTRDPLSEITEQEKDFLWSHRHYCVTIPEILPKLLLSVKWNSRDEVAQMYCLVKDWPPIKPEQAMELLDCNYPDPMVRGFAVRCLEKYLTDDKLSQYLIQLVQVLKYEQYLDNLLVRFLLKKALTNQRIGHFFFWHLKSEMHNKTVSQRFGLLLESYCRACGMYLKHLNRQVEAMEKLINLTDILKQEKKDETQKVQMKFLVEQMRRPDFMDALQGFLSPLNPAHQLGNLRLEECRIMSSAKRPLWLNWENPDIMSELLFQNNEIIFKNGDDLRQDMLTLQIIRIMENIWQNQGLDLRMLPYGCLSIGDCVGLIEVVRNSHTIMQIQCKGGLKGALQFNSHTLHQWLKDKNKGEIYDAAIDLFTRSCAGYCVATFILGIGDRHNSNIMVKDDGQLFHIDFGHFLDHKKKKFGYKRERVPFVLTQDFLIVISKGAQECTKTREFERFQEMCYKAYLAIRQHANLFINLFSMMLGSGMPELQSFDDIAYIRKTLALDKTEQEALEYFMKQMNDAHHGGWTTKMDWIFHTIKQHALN
PI3K-alpha (PIK3CA/PIK3R1), sequence (P27986 whole entry partner, looked up): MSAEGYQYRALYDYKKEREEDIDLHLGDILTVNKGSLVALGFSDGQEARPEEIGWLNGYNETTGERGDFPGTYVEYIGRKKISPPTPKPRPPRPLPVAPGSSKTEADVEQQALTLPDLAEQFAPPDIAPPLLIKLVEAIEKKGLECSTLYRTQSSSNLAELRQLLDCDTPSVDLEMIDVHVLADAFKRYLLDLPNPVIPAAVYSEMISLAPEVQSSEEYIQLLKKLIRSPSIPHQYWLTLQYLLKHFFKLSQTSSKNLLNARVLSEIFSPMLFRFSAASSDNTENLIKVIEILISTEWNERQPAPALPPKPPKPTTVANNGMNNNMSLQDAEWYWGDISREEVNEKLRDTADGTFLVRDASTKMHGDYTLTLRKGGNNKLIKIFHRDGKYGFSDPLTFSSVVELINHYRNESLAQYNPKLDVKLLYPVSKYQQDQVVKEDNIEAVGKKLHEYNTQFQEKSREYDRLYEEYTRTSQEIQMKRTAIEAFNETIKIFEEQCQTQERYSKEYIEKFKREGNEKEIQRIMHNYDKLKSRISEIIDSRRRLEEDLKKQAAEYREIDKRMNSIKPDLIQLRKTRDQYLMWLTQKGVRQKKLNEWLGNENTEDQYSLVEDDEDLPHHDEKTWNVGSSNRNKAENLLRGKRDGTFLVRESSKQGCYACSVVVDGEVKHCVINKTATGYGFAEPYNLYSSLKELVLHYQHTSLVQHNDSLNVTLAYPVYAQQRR
Excerpt: 3. PI3K-alpha Enzyme Activity Assay: PI3K alpha-ADP Glo Assay was employed. In the determination of PI3K enzyme activity, the detection kit supplied by Promega (Promega, Cat #: V9101) was used to detect the inhibition effect of the compounds on the activity of PI3K enzyme. The adenosine diphosphate produced during the whole enzymic reactions was quantified. The resulting values were used to calculate the activity of PI3K (Table 1).
3.1 Detection reagents: PIK3CA/PIK3R1 purchased from Invitrogen (Cat #: PV4788): The active kinase was diluted with kinase diluent III; and mixed with bovine serum albumin (BSA) in a ratio of 1:4 (5×dilution). The final BSA concentration was 50 ng/ml; and the compositions of Kinase Detection Solution I were: 25 mM MOPS, pH7.2, 12.5 mM β-glycerophosphate, 25 mM magnesium chloride, 5 mM EGTA, and 2 mM EDTA. Before use, 0.25 mM DTT was added to Kinase Detection Solution I; 250 μM adenosine triphosphate (ATP) Detection solution: 0.55 mg of ATP was dissolved in 4 ml of Kinase Detection Solution I, subdivided in 200 μl/vial and stored at −20° C. Substrate: Phosphatidylinositol (4,5) bis-phosphate; this substrate was diluted with Kinase Detection Solution I to a concentration of 125 μM. Final concentrations were: 10 μM PIP2, 10 μM ATP, 1% DMSO, and 0.0005-10 μM compounds.
a) Experimental Procedure: • 3.2.1 50 μL of the compounds diluted with dimethyl sulfoxide (DMSO) at a concentration of 100 μM were added to the 384-well dilution plate. The compounds were diluted with dimethyl sulfo de (DMSO) in a ratio of 1:3 (10 dilution concentrations plus 1 zero concentration). • 3.2.2 5 μL of the diluted compounds were transferred to the corresponding 384-well black Proxi plate (containing 47.5 μL of detection solution/well), and shaked for several seconds. • 3.2.3 2 μL of 2.5×PI3K working solution was added to 384-well black Proxi plate. • 3.2.4 2 μL of the diluted compounds were added to the detection plate (3 wells for each concentration). • 3.2.5 The plate was incubated at room temperature for 2 h. • 3.2.6 5 μL of ADP Glo Reagent was added. • 3.2.7 The plate was incubated at room temperature for 40 minutes. • 3.2.8 10 μL of the kinase detection reagent was added. • 3.2.9 The plate was incubated at room temperature for 40 minutes. • 3.2.10 The activity was detected by using Envision Reader.
The inhibition of the mTOR […] activity by the compounds ranges in 0.5 to several hundreds nanomoles, see Table 1.

Row | SMILES | EC50 (SK-BR3/BT474) | solubility ([1]; aqueous with cosolvent or surfactant or cyclodextrin, 30% hydroxypropyl-β-cyclodextrin) | EC50 (MV-4-11) | IC50 (mTOR kinase) | EC50 (PC-3) | solubility ([1]; aqueous buffer, water) | IC50 [2]
1 | Cn1c(=O)n([C@H]2CC[C@@H](O)CC2)c2c3cc(-c4ccc(-c5ccccc5)nc4)ccc3ncc21 [Example 19, 1-((1s,4s)-4-hydroxycyclohexyl)-3-methyl-8-(6-phenylpyridin-3-yl)-1H-imidazo[4,5-c]quinolin-2(3H)-one] | < 100 nM | > 1000 µg/mL | < 200 nM | < 10 nM | < 50 nM |  | 
2 | CCS(=O)(=O)N1CCC[C@@H](n2c(=O)n(C)c3cnc4ccc(-c5ccc(-c6cnn(C)c6)nc5)cc4c32)C1 [Example 52, (R)-1-(1-(ethylsulfonyl)piperidin-3-yl)-3-methyl-8-(6-(1-methyl-1H-pyrazol-4-yl)pyridin-3-yl)-1H-imidazo[4,5-c]quinolin-2(3H)-one] | 50 nM |  | < 30 nM |  | < 30 nM | > 1000 µg/mL | 
3 | Cn1c(=O)n([C@H]2CC[C@@H](O)CC2)c2c3cc(-c4cnn(-c5ccccc5)c4)ccc3ncc21 [Example 21, 1-((1s,4s)-4-hydroxycyclohexyl)-3-methyl-8-(1-phenyl-1H-pyrazol-4-yl)-1H-imidazo[4,5-c]quinolin-2(3H)-one] | < 500 nM |  | < 200 nM | 10 to 100 nM | < 500 nM |  | 
4 | Cn1cc(-c2ccc(-c3ccc4ncc5c(c4c3)n([C@H]3CC[C@H](O)CC3)c(=O)n5C)cn2)cn1 [Example 17, 1-((1r,4r)-4-hydroxycyclohexyl)-3-methyl-8-(6-(1-methyl-1H-pyrazol-4-yl)pyridin-3-yl)-1H-imidazo[4,5-c]quinolin-2(3H)-one] | < 200 nM |  | < 500 nM | < 10 nM | < 100 nM |  | 
5 | Cn1c(=O)n([C@H]2CC[C@H](O)CC2)c2c3cc(-c4cnn(-c5ccccc5)c4)ccc3ncc21 [Example 23, 1-((1r,4r)-4-hydroxycyclohexyl)-3-methyl-8-(1-phenyl-1H-pyrazol-4-yl)-1H-imidazo[4,5-c]quinolin-2(3H)-one] | < 500 nM |  | < 500 nM | 10 to 100 nM | < 200 nM |  | 
6 | Cn1cc(-c2ccc(-c3ccc4ncc5c(c4c3)n([C@@H]3CCN(S(C)(=O)=O)C3)c(=O)n5C)cn2)cn1 [Example 27, (R)-3-methyl-8-(6-(1-methyl-1H-pyrazol-4-yl)pyridin-3-yl)-1-(1-(methanesulfonyl)pyrrolidin-3-yl)-1H-imidazo[4,5-c]quinolin-2(3H)-one] | < 1000 nM |  |  | 100 to 1000 nM |  |  | < 10 nM
7 | Cn1cc(-c2ccc(-c3ccc4ncc5c(c4c3)n(C3CCCC(O)C3)c(=O)n5C)cn2)cn1 (stereo not drawn) [Example 32, 1-(3-hydroxycyclohexyl)-3-methyl-8-(6-(1-methyl-1H-pyrazol-4-yl)pyridin-3-yl)-1H-imidazo[4,5-c]quinolin-2(3H)-one] | < 100 nM |  | < 200 nM | < 10 nM | < 50 nM |  | 
8 | Cn1cc(-c2ccc(-c3ccc4ncc5c(c4c3)n(C3CCCN(C(=O)CO)C3)c(=O)n5C)cn2)cn1 (stereo not drawn) [Example 1, 1-(1-(2-hydroxyacetyl)piperidin-3-yl)-3-methyl-8-(6-(1-methyl-1H-pyrazol-4-yl)pyridin-3-yl)-1H-imidazo[4,5-c]quinolin-2(3H)-one] | < 500 nM |  | < 1000 nM | 10 to 100 nM | < 200 nM | > 1000 µg/mL | 
